Data from US11254680B2, “Cyclic iminopyrimidine derivatives as kinase inhibitors” (ABM Therapeutics Corporation, priority 2017, dated 2022).

These compounds were tested on A375 melanoma cells (assay: Antiproliferation assay in A375 cell line by CellTiter Glo). Settings: Homo sapiens, A-375, 72 hours or 144 hours.
Format: cell-based
Method: In vitro anti-proliferation study of test compounds in A375 cell line by CellTiter Glo. The cells were routinely maintained as a monolayer culture in corresponding culture medium, at 37° C. with 5% CO2 in air.
Harvest the exponential growth cells by trypsin-EDTA digestion. Re-suspend the cell pellet in fresh culture medium, and adjust the concentration to needed (the cell density per well was listed in following form). The cell viability is over 98% by Trypan blue staining. Inoculate cells into 96 wells plates according to the plate map (90 μL/well). Incubate the plates at 37° C. and 5% CO2 overnight. The next day, prepare the 10×compound containing medium according to the plate map. Transfer 10 μL of 10×compound containing medium into each well of the assay plates (the final DMSO concentration is 0.5%). Gently mix the medium and incubate at 37° C. and 5% CO2 for another 72 hours or 144 hours.
Prepare the reagent according to the manufacture's instruction. Add 50 μL CellTiter-Glo Reagent in each well. Mix contents for 2 minutes on an orbital shaker to induce cell lysis. Allow the plate to incubate at room temperature for 10 minutes to stabilize luminescent signal. Transfer 100 μL of reaction contents of each well from the clear plates into white walled/white opaque 96-well plates. Record the luminescence on Envision.
Using the luminescence measurements [time zero (T0), control growth (C), and test growth in the presence of drug at the six concentration levels (Ti)], the percentage growth is calculated at each of the drug concentrations levels.
Percentage growth inhibition (GI) is calculated as: GI (%)═[(Ti-T0)/(C-T0)]×100 for concentrations for which Ti>=T0, and GI (%)═[(Ti-T0)/T0]×100 for concentrations for which Ti<T0. Data were analyzed using the XLFit (Excel) tool, fitting to a 4-parameter equation to generate concentration response curves. Concentration of compound that inhibits 50% of control cell growth (GI50) was back-interpolated when y=50% of net growth of DMSO treated control wells using nonlinear regression with the equation: f(x) 205 [fit=(A+((B−A)/(1+((C/x)^))))], where A is the minimum response (Ymin), B is the maximum response (Ymax), C is the inflection point of the curve (Re GI50) and D is the Hill coefficient. Growth inhibition of 50% (GI50) was calculated at the 50% Growth inhibition on the curve. Index values were the sum of Inhibition rate (IR) at each tested compound concentration.

SMILES	GI50 [µM]
CCCS(=O)(=O)Nc1c(F)cc(F)c(Oc2ccc3c(c2)C2=NCCN2C=N3)c1C#N [Compound 4, N-(2-Cyano-3-((2,3-dihydroimidazo[1,2-c]quinazolin-9-yl)oxy)-4,6-difluorophenyl)propane-1-sulfonamide]	0.1 to 1
CCCS(=O)(=O)Nc1ccc([N+](=O)[O-])c(Oc2ccc3c(c2)C2=NCCN2C=N3)c1F [Compound 7, N-(3-((2,3-Dihydroimidazo[1,2-c]quinazolin-9-yl)oxy)-2-fluoro-4-nitrophenyl)propane-1-sulfonamide]	> 1
CCCS(=O)(=O)Nc1ccc(N)c(Oc2ccc3c(c2)C2=NCCN2C=N3)c1F [Compound 8, N-(4-Amino-3-((2,3-dihydroimidazo[1,2-c]quinazolin-9-yl)oxy)-2-fluorophenyl)propane-1-sulfonamide]	> 1
CCCS(=O)(=O)Nc1ccc(F)c(Oc2ccc3c(c2)C2=NCCN2C=N3)c1F [Compound 10, N-(3-((2,3-Dihydroimidazo[1,2-c]quinazolin-9-yl)oxy)-2,4-difluorophenyl)propane-1-sulfonamide]	> 1
CCCS(=O)(=O)Nc1cccc(Oc2ccc3c(c2)C2=NCCN2C=N3)c1N [Compound 13, N-(2-Amino-3-((2,3-dihydroimidazo[1,2-c]quinazolin-9-yl)oxy)phenyl)propane-1-sulfonamide]	> 1
CCCS(=O)(=O)Nc1c([N+](=O)[O-])ccc(Oc2ccc3c(c2)C2=NCCCN2C=N3)c1F [Compound 19, N-(3-((3,4-Dihydro-2H-pyrimido[1,2-c]quinazolin-10-yl)oxy)-2-fluoro-6-nitrophenyl)propane-1-sulfonamide]	> 1
CCCS(=O)(=O)Nc1c(N)ccc(Oc2ccc3c(c2)C2=NCCCN2C=N3)c1F [Compound 20, N-(6-Amino-3-((3,4-dihydro-2H-pyrimido[1,2-c]quinazolin-10-yl)oxy)-2-fluorophenyl)propane-1-sulfonamide]	> 1
CCCS(=O)(=O)Nc1ccnc(Oc2ccc3c(c2)C2=NCCCN2C=N3)c1[N+](=O)[O-] [Compound 22, N-(2-((3,4-Dihydro-2H-pyrimido[1,2-c]quinazolin-10-yl)oxy)-3-nitropyridin-4-yl)propane-1-sulfonamide]	> 1
CCCS(=O)(=O)Nc1nccc(Oc2ccc3c(c2)C2=NCCCN2C=N3)c1C#N [Compound 24, N-(3-Cyano-4-((3,4-dihydro-2H-pyrimido[1,2-c]quinazolin-10-yl)oxy)pyridin-2-yl)propane-1-sulfonamide]	> 1
CCCS(=O)(=O)Nc1ccnc(Oc2ccc3c(c2)C2=NCCCN2C=N3)c1C#N [Compound 25, N-(3-Cyano-2-((3,4-dihydro-2H-pyrimido[1,2-c]quinazolin-10-yl)oxy)pyridin-4-yl)propane-1-sulfonamide]	> 1
CCCS(=O)(=O)Nc1cccc(Oc2cc3c(cn2)N=CN2CCCN=C32)c1C#N [Compound 27, N-(2-Cyano-3-((3,4-dihydro-2H-pyrido[4,3-e]pyrimido[1,2-c]pyrimidin-10-yl)oxy)phenyl)propane-1-sulfonamide]	0.1 to 1
CCCS(=O)(=O)Nc1cccc(Oc2ccc3c(c2)C2=NCCCCN2C=N3)c1C#N [Compound 28, N-(2-Cyano-3-((2,3,4,5-tetrahydro-[1,3]diazepino[1,2-c]quinazolin-11-yl)oxy)phenyl)propane-1-sulfonamide]	> 1
O=S(=O)(CCCF)Nc1cccc(Oc2ccc3c(c2)C2=NCCCN2C=N3)c1Cl [Compound 38, N-(2-Chloro-3-((3,4-dihydro-2H-pyrimido[1,2-c]quinazolin-10-yl)oxy)phenyl)-3-fluoropropane-1-sulfonamide]	< 0.1
O=S(=O)(CCCO)Nc1cccc(Oc2ccc3c(c2)C2=NCCCN2C=N3)c1Cl [Compound 39, N-(2-Chloro-3-((3,4-dihydro-2H-pyrimido[1,2-c]quinazolin-10-yl)oxy)phenyl)-3-hydroxypropane-1-sulfonamide]	0.1 to 1
O=S(=O)(Nc1cccc(Oc2ccc3c(c2)C2=NCCCN2C=N3)c1Cl)N1CC[C@@H](F)C1 [Compound 40, (R)—N-(2-Chloro-3-((3,4-dihydro-2H-pyrimido[1,2-c]quinazolin-10-yl)oxy)phenyl)-3-fluoropyrrolidine-1-sulfonamide]	< 0.1
CCN(C)S(=O)(=O)Nc1cccc(Oc2ccc3c(c2)C2=NCCCN2C=N3)c1Cl [Compound 41, N-(2-Chloro-3-((3,4-dihydro-2H-pyrimido[1,2-c]quinazolin-10-yl)oxy)phenyl)-N-ethyl-N-methylamino-1-sulfonamide]	< 0.1
CCCS(=O)(=O)Nc1cccc(N(C)c2cc3c(cn2)N=CN2CCCN=C32)c1C#N [Compound 42, N-(2-Cyano-3-((3,4-dihydro-2H-pyrido[4,3-e]pyrimido[1,2-c]pyrimidin-10-yl)(methyl)amino)phenyl)propane-1-sulfonamide]	> 1
CCCS(=O)(=O)Nc1cccc(Nc2cc3c(cn2)N=CN2CCCN=C32)c1C#N [Compound 43, N-(2-Cyano-3-((3,4-dihydro-2H-pyrido[4,3-e]pyrimido[1,2-c]pyrimidin-10-yl)amino)phenyl)propane-1-sulfonamide]	0.1 to 1
CC(C)S(=O)(=O)Nc1cccc(Oc2ccc3c(c2)C2=NCCN2C=N3)c1Cl [Compound 44, N-(2-Chloro-3-((2,3-dihydroimidazo[1,2-c]quinazolin-9-yl)oxy)phenyl)propane-2-sulfonamide]	< 0.1
CCN(C)S(=O)(=O)Nc1cccc(Oc2ccc3c(c2)C2=NCCN2C=N3)c1Cl [Compound 45, N-(2-Chloro-3-((2,3-dihydroimidazo[1,2-c]quinazolin-9-yl)oxy)phenyl)-N-ethyl-N-methylamino-1-sulfonamide]	> 1
CN(CCF)S(=O)(=O)Nc1cccc(Oc2ccc3c(c2)C2=NCCN2C=N3)c1Cl [Compound 47, N-(2-Chloro-3-((2,3-dihydroimidazo[1,2-c]quinazolin-9-yl)oxy)phenyl)-(2-fluoroethyl)(methyl)amino-1-sulfonamide]	< 0.1
O=S(=O)(Nc1cccc(Oc2ccc3c(c2)C2=NCCN2C=N3)c1Cl)N1CCCC1 [Compound 48, N-(2-Chloro-3-((2,3-dihydroimidazo[1,2-c]quinazolin-9-yl)oxy)phenyl)pyrrolidine-1-sulfonamide]	< 0.1
O=S(=O)(Nc1cc(Oc2ccc3c(c2)C2=NCCN2C=N3)ccc1F)N1CCCC1 [Compound 49, N-(5-((2,3-Dihydroimidazo[1,2-c]quinazolin-9-yl)oxy)-2-fluorophenyl)pyrrolidine-1-sulfonamide]	> 1
CCCS(=O)(=O)Nc1cc(Oc2ccc3c(c2)C2=NCCN2C=N3)ccc1F [Compound 51, N-(5-((2,3-Dihydroimidazo[1,2-c]quinazolin-9-yl)oxy)-2-fluorophenyl)propane-1-sulfonamide]	> 1
CC1(C)CN2C=Nc3ccc(Oc4cccc(NS(=O)(=O)N5CC[C@@H](F)C5)c4Cl)cc3C2=N1 [Compound 53, (R)—N-(2-Chloro-3-((2,2-dimethyl-2,3-dihydroimidazo[1,2-c]quinazolin-9-yl)oxy)phenyl)-3-fluoropyrrolidine-1-sulfonamide]	< 0.1
CC1(C)CN2C=Nc3ccc(Oc4cccc(NS(=O)(=O)N5CCCC5)c4Cl)cc3C2=N1 [Compound 54, N-(2-Chloro-3-((2,2-dimethyl-2,3-dihydroimidazo[1,2-c]quinazolin-9-yl)oxy)phenyl)pyrrolidine-1-sulfonamide]	< 0.1
CCCS(=O)(=O)Nc1cccc(Oc2ccc3c(c2)C2=NC(C)(C)CN2C=N3)c1Cl [Compound 55, N-(2-Chloro-3-((2,2-dimethyl-2,3-dihydroimidazo[1,2-c]quinazolin-9-yl)oxy)phenyl)propane-1-sulfonamide]	< 0.1
